Measured values from PubChem BioAssay (NCI).
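48-hour exposure; five concentrations; linearly interpolated endpoints. TGI marks complete inhibition of growth.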

Tests used:
Experiment in all cases: NCI tumour cell line growth inhibition, 48 h
SK-OV-3 ovarian = test system: SK-OV-3 ovarian
HOP-92 NSCLC = test system: HOP-92 NSCLC
OVCAR-5 ovarian = test system: OVCAR-5 ovarian
MDA-MB-231 breast = test system: MDA-MB-231 breast
OVCAR-8 ovarian = test system: OVCAR-8 ovarian
UACC-257 melanoma = test system: UACC-257 melanoma
K-562 leukemia = test system: K-562 leukemia
HS 578T breast = test system: HS 578T breast
SN12C renal = test system: SN12C renal
HOP-18 NSCLC = test system: HOP-18 NSCLC
SNB-78 CNS = test system: SNB-78 CNS
U251 CNS = test system: U251 CNS
KM12 colon = test system: KM12 colon
M14 melanoma = test system: M14 melanoma
OVCAR-4 ovarian = test system: OVCAR-4 ovarian
HCC-2998 colon = test system: HCC-2998 colon
A549 NSCLC = test system: A549 NSCLC
RPMI-8226 leukemia = test system: RPMI-8226 leukemia
NCI-H460 lung = test system: NCI-H460 lung
786-0 renal = test system: 786-0 renal
PC-3 prostate = test system: PC-3 prostate
BT-549 breast = test system: BT-549 breast
HT29 colon = test system: HT29 colon
M19-MEL melanoma = test system: M19-MEL melanoma
ACHN renal = test system: ACHN renal
TK-10 renal = test system: TK-10 renal
SW-620 colon = test system: SW-620 colon
SK-MEL-28 melanoma = test system: SK-MEL-28 melanoma
OVCAR-3 ovarian = test system: OVCAR-3 ovarian
MALME-3M melanoma = test system: MALME-3M melanoma
HCT-116 colon = test system: HCT-116 colon
NCI-H23 lung = test system: NCI-H23 lung
IGROV1 ovarian = test system: IGROV1 ovarian
DMS 273 small cell lung = test system: DMS 273 small cell lung
MOLT-4 leukemia = test system: MOLT-4 leukemia
RXF 393 renal = test system: RXF 393 renal
MCF7 breast = test system: MCF7 breast
DU-145 prostate = test system: DU-145 prostate
SF-539 CNS = test system: SF-539 CNS
CCRF-CEM leukemia = test system: CCRF-CEM leukemia
RXF-631 renal = test system: RXF-631 renal
NCI-H226 lung = test system: NCI-H226 lung
SNB-19 CNS = test system: SNB-19 CNS
HCT-15 colon = test system: HCT-15 colon
HOP-62 NSCLC = test system: HOP-62 NSCLC
SF-268 CNS = test system: SF-268 CNS
HL-60(TB) leukemia = test system: HL-60(TB) leukemia
XF 498 CNS = test system: XF 498 CNS
UACC-62 melanoma = test system: UACC-62 melanoma
LXFL 529 NSCLC = test system: LXFL 529 NSCLC
SK-MEL-5 melanoma = test system: SK-MEL-5 melanoma
A498 renal = test system: A498 renal
KM20L2 colon = test system: KM20L2 colon
LOX IMVI melanoma = test system: LOX IMVI melanoma
DLD-1 colon = test system: DLD-1 colon
T-47D breast = test system: T-47D breast
EKVX NSCLC = test system: EKVX NSCLC
SF-295 CNS = test system: SF-295 CNS
UO-31 renal = test system: UO-31 renal
SNB-75 CNS = test system: SNB-75 CNS
DMS 114 small cell lung = test system: DMS 114 small cell lung
SK-MEL-2 melanoma = test system: SK-MEL-2 melanoma
NCI-H522 lung = test system: NCI-H522 lung
COLO 205 colon = test system: COLO 205 colon
MDA-N = test system: MDA-N
NCI/ADR-RES ovarian = test system: NCI/ADR-RES ovarian
P388/ADR leukemia = test system: P388/ADR leukemia
CAKI-1 renal = test system: CAKI-1 renal
P388 leukemia = test system: P388 leukemia
SN12K1 renal = test system: SN12K1 renal

## ON(Cc1ccccc1)C(=S)c1ccccc1
SK-OV-3 ovarian
  TGI: > 100 µM
HOP-92 NSCLC
  TGI: > 100 µM
OVCAR-5 ovarian
  TGI: > 100 µM
MDA-MB-231 breast
  TGI: > 100 µM
OVCAR-8 ovarian
  TGI: > 69.8 µM
UACC-257 melanoma
  TGI: 39.4 µM
K-562 leukemia
  TGI: > 100 µM
HS 578T breast
  TGI: > 100 µM
SN12C renal
  TGI: > 100 µM
HOP-18 NSCLC
  TGI: > 100 µM
SNB-78 CNS
  TGI: > 100 µM
U251 CNS
  TGI: 61 µM
KM12 colon
  TGI: > 63.6 µM
M14 melanoma
  TGI: 55.6 µM
OVCAR-4 ovarian
  TGI: > 100 µM
HCC-2998 colon
  TGI: 98.1 µM
A549 NSCLC
  TGI: > 100 µM
RPMI-8226 leukemia
  TGI: > 100 µM
NCI-H460 lung
  TGI: 22.3 µM
786-0 renal
  TGI: > 100 µM
PC-3 prostate
  TGI: > 100 µM
BT-549 breast
  TGI: > 100 µM
HT29 colon
  TGI: > 100 µM
M19-MEL melanoma
  TGI: > 100 µM
ACHN renal
  TGI: 62.1 µM
TK-10 renal
  TGI: > 100 µM
SW-620 colon
  TGI: > 100 µM
SK-MEL-28 melanoma
  TGI: > 100 µM
OVCAR-3 ovarian
  TGI: > 67 µM
MALME-3M melanoma
  TGI: > 100 µM
HCT-116 colon
  TGI: 51.6 µM
NCI-H23 lung
  TGI: 47.1 µM
IGROV1 ovarian
  TGI: > 100 µM
DMS 273 small cell lung
  TGI: > 76.5 µM
MOLT-4 leukemia
  TGI: > 41 µM
RXF 393 renal
  TGI: 85.3 µM
MCF7 breast
  TGI: > 100 µM
DU-145 prostate
  TGI: > 100 µM
SF-539 CNS
  TGI: 44.4 µM
CCRF-CEM leukemia
  TGI: > 27 µM
RXF-631 renal
  TGI: > 100 µM
NCI-H226 lung
  TGI: 93 µM
SNB-19 CNS
  TGI: > 100 µM
HCT-15 colon
  TGI: > 100 µM
HOP-62 NSCLC
  TGI: 42.9 µM
SF-268 CNS
  TGI: > 100 µM
HL-60(TB) leukemia
  TGI: 7.75 µM
XF 498 CNS
  TGI: > 100 µM
UACC-62 melanoma
  TGI: 25.4 µM
LXFL 529 NSCLC
  TGI: > 100 µM
SK-MEL-5 melanoma
  TGI: > 100 µM
A498 renal
  TGI: > 100 µM
KM20L2 colon
  TGI: > 100 µM
LOX IMVI melanoma
  TGI: > 46.9 µM
DLD-1 colon
  TGI: > 100 µM
T-47D breast
  TGI: > 100 µM
EKVX NSCLC
  TGI: > 100 µM
SF-295 CNS
  TGI: > 45.3 µM
UO-31 renal
  TGI: 37.9 µM
SNB-75 CNS
  TGI: > 100 µM
DMS 114 small cell lung
  TGI: 9.55 µM
SK-MEL-2 melanoma
  TGI: > 100 µM
NCI-H522 lung
  TGI: 28 µM
COLO 205 colon
  TGI: > 93.8 µM
MDA-N
  TGI: > 100 µM

## O=C1C=C2SC3C[C@@]24CC1[N+]1=c2c4c(c(O)c4c2=C(C=N4)CC1)N3
SK-OV-3 ovarian
  TGI: 7 µM
HOP-92 NSCLC
  TGI: > 100 µM
OVCAR-5 ovarian
  TGI: 3.9 µM
OVCAR-8 ovarian
  TGI: 4.21 µM
UACC-257 melanoma
  TGI: 3.17 µM
K-562 leukemia
  TGI: 8.26 µM
NCI/ADR-RES ovarian
  TGI: 16.1 µM
SN12C renal
  TGI: 6.95 µM
HOP-18 NSCLC
  TGI: 18.9 µM
SNB-78 CNS
  TGI: 5.88 µM
U251 CNS
  TGI: 3.33 µM
KM12 colon
  TGI: 4.74 µM
OVCAR-4 ovarian
  TGI: 3.13 µM
HCC-2998 colon
  TGI: 6.78 µM
A549 NSCLC
  TGI: 21.2 µM
RPMI-8226 leukemia
  TGI: 7.38 µM
NCI-H460 lung
  TGI: 9.03 µM
HT29 colon
  TGI: > 26 µM
M19-MEL melanoma
  TGI: 3.44 µM
SW-620 colon
  TGI: 5.44 µM
SK-MEL-28 melanoma
  TGI: 4.09 µM
OVCAR-3 ovarian
  TGI: 2.51 µM
MALME-3M melanoma
  TGI: 3.3 µM
HCT-116 colon
  TGI: 3.35 µM
IGROV1 ovarian
  TGI: 6.48 µM
DMS 273 small cell lung
  TGI: 4.12 µM
MOLT-4 leukemia
  TGI: 4.11 µM
RXF 393 renal
  TGI: 3.84 µM
MCF7 breast
  TGI: 4.23 µM
SF-539 CNS
  TGI: 3.34 µM
CCRF-CEM leukemia
  TGI: > 100 µM
NCI-H226 lung
  TGI: 4.76 µM
SNB-19 CNS
  TGI: 9.66 µM
P388/ADR leukemia
  TGI: 23.1 µM
HCT-15 colon
  TGI: 13.7 µM
HOP-62 NSCLC
  TGI: 32.6 µM
SF-268 CNS
  TGI: 2.9 µM
HL-60(TB) leukemia
  TGI: 3.78 µM
XF 498 CNS
  TGI: 3.34 µM
UACC-62 melanoma
  TGI: 3.23 µM
SK-MEL-5 melanoma
  TGI: 3.44 µM
A498 renal
  TGI: 16.6 µM
KM20L2 colon
  TGI: 3.81 µM
LOX IMVI melanoma
  TGI: 6.65 µM
CAKI-1 renal
  TGI: 7.99 µM
P388 leukemia
  TGI: 4.15 µM
DLD-1 colon
  TGI: 5.12 µM
EKVX NSCLC
  TGI: 4.8 µM
SF-295 CNS
  TGI: 11.6 µM
UO-31 renal
  TGI: 30.3 µM
SNB-75 CNS
  TGI: 12.2 µM
SN12K1 renal
  TGI: 3.76 µM
DMS 114 small cell lung
  TGI: 2.85 µM
SK-MEL-2 melanoma
  TGI: 3.35 µM
NCI-H522 lung
  TGI: 2.99 µM
COLO 205 colon
  TGI: 3.57 µM
